The values below come from patent publication US9040563B2, “Dual inhibitors of farnesyltransferase and geranylgeranyltransferase I” (H. Lee Moffitt Cancer Center and Research Institute, Inc., priority 2010, dated 2015).

The target of one experiment is hFTase (Homo sapiens, UniProt P49354+P49356). Nature of the experiment: In vitro hFTase inhibition: incorporation of [3H]FPP into recombinant H-Ras-CVLS. Particulars: for selectivity (ratio of GGTase-I to FTase IC50s): GGTase-I IC50 / hFTase IC50. Format: biochemical.
In experiment [1] the test system is geranylgeranylation of Rap1A. Kind of experiment: Whole cell inhibition of Rap1A processing (geranylgeranylation), immunoblot, oncogenic H-Ras-transformed NIH3T3 cells. Format: cell-based, mouse. Conditions: Mus musculus. The protocol: (§1) In vitro inhibition assays for FTase and GGTase-I were conducted by measuring the incorporation of [^3H]FPP and [^3H]GGPP into recombinant H-Ras-CVLS and H-Ras-CVLL, respectively, as previously described (Vogt, et al., Protein geranylgeranylation, not farnesylation, is required for the G1 to S phase transition in mouse fibroblasts. Oncogene, 1996, 13, 1991-1999). The in vivo inhibition of farnesylation and geranylgeranylation was determined based on the level of inhibition by synthetic compounds of H-Ras and Rap1A processing, respectively (Sun, et al., Both farnesyltransferase and geranylgeranyltransferase I inhibitors are required for inhibition of oncogenic K-Ras prenylation but each alone is sufficient to suppress human tumor growth in nude mouse xenografts. Oncogene, 1998, 16, 1467-1473). […] The separated proteins were transferred to nitrocellulose and immunoblotted using an anti-Ras antibody (Y13-258) or an anti-Rap1A antibody (SantaCruz Biotechnology, Santa Cruz, Calif.), respectively. Antibody reactions were visualized using either peroxidase-conjugated goat anti-rat IgG or goat anti-rabbit IgG (Jackson ImmunoResearch, West Grove, Pa.) and an enhanced chemiluminescence detection system.
(§2) Briefly, in vitro inhibition assays for hFTase and GGTase-I were carried out by measuring the incorporation of [^3H]FPP and [^3H]GGPP into recombinant H-Ras-CVLS and H-Ras-CVLL, respectively, as described previously (Vogt et al., Protein geranylgeranylation, not farnesylation, is required for G1 to S phase transition in mouse fibroblasts. Oncogene. 1996; 13:1991-1999). Whole cell inhibition of farnesylation and geranylgeranylation were determined based on the level of inhibition by synthetic compounds of H-Ras and Rap1A processing, respectively (Sun, et al., Both farnesyltransferase and geranylgeranyltransferase I inhibitors are required for inhibition of oncogenic K-Ras prenylation but each alone is sufficient to suppress human tumor growth in nude mouse xenografts. Oncogene. 1998; 16:1467-1473).

The test system of the next experiment is farnesylation of H-Ras. Nature of the experiment: Whole cell inhibition of H-Ras processing (farnesylation), immunoblot, oncogenic H-Ras-transformed NIH3T3 cells. Format: cell-based, mouse. Conditions: Mus musculus, NIH3T3, whole cells, oncogenic H-Ras-transformed NIH3T3; n = 3 unless stated; read-out: H-Ras processing IC50. The protocol:
as §1, §2

Where [2] appears, read: whole cells, oncogenic H-Ras-transformed NIH3T3, n = 3 unless stated, read-out: Rap1A processing IC50.

Where two headings read alike, the source gives them in different places.

As for `Cn1cnc(S(=O)(=O)N(CCN(Cc2cncn2C)c2ccc(C#N)cc2)Cc2ccco2)c1` [compound 1aj, [N-(Furan-2-ylmethyl), N-{2-[(4-cyanophenyl)-(3-methyl-3H-imidazol-4-ylmethyl)-amino]-ethyl}]1-methyl-1H-imidazole-4-sulfonamide], the “selectivity (ratio of GGTase-I to FTase IC50s)” value on hFTase came to 15. Further, the IC50 (commonly the concentration at which inhibition is half-maximal) in experiment [1] (setting [2]) is above 10 µM.
As to `Cc1noc(C)c1CN(CCN(Cc1cncn1C)c1ccc(C#N)cc1)S(=O)(=O)c1cn(C)cn1` [compound 1al, [N-(3,5-Dimethyl-isoxazol-4-ylmethyl), N-{2-[(4-cyanophenyl)-(3-methyl-3H-imidazol-4-ylmethyl)-amino]-ethyl}]1-methyl-1H-imidazole-4-sulfonamide], the concentration for half-maximal inhibition (IC50) (with farnesylation of H-Ras; in experiment [1] (setting [2])) was above 10 µM in each case. Besides, the “selectivity (ratio of GGTase-I to FTase IC50s)” value at hFTase was 2.7.
On to `Cn1cncc1CN(CCN(CC1CCCCC1)S(=O)(=O)c1ccccn1)c1ccc(C#N)cc1` [21a, N-(2-((4-cyanophenyl)((1-methyl-1H-imidazol-5-yl)methyl)amino)ethyl)-N-(cyclohexylmethyl)pyridine-2-sulfonamide], for which the half-maximal inhibitory concentration (IC50) with farnesylation of H-Ras is 0.268 ± 0.212 µM; in experiment [1] (setting [2]) it was 6.2 ± 1.2 µM. Moreover, the “selectivity (ratio of GGTase-I to FTase IC50s)” value at hFTase is 1.5.
Turning to `Cn1cnc(S(=O)(=O)N(CCN(Cc2cnc[nH]2)c2ccccc2)Cc2ccccc2)c1` [compound 3], the “selectivity (ratio of GGTase-I to FTase IC50s)” value on hFTase came out at 1.6. Also, the IC50 at hFTase (in vitro, average of three independent assays (n = 3) unless stated, errors are standard deviations) is 6.3 ± 0.36 µM; in experiment [1] (setting [2]), above 10 µM.
Consider `Cn1cnc(S(=O)(=O)N(CCN(Cc2cncn2C)c2ccc(C#N)cc2)Cc2ccoc2)c1` [compound 1ah, [N-(Furan-3-ylmethyl), N-{2-[(4-cyanophenyl)-(3-methyl-3H-imidazol-4-ylmethyl)-amino]-ethyl}]1-methyl-1H-imidazole-4-sulfonamide], for which the half-inhibitory concentration (IC50) in the experiment on farnesylation of H-Ras was 0.65 µM; in experiment [1] (setting [2]), above 10 µM. In addition, on hFTase, the “selectivity (ratio of GGTase-I to FTase IC50s)” value is recorded as 19.
Turning to `Cn1cnc(S(=O)(=O)N(CCN(Cc2cncn2C)c2ccc(C#N)cc2)Cc2cccc(C#N)c2)c1` [1ar], in experiment [1] (setting [2]), the half-inhibitory concentration (IC50) was above 10 µM.
In the case of `Cn1cnc(S(=O)(=O)N(CCN(Cc2cncn2C)c2ccc(C#N)cc2)Cc2cccc(-c3ccccc3)c2)c1` [1at], the “selectivity (ratio of GGTase-I to FTase IC50s)” value on hFTase is reported as 2.4. Further, the IC50 in experiment [1] (setting [2]) is above 10 µM.
Take `Cc1ccccc1CN(CCN(Cc1cncn1C)c1ccc(C#N)cc1)S(=O)(=O)c1cn(C)cn1` [1ao]: the “selectivity (ratio of GGTase-I to FTase IC50s)” value at hFTase was determined as 15. In addition, the IC50 in experiment [1] (setting [2]) was above 10 µM.
For `Cn1cnc(S(=O)(=O)N(CCN(Cc2cncn2C)c2ccc(C#N)cc2)CC2CC2)c1` [1aw, [N-(Cyclopropylmethyl), N-{2-[(4-cyanophenyl)-(3-methyl-3H-imidazol-4-ylmethyl)-amino]-ethyl}]1-methyl-1H-imidazole-4-sulfonamide], the IC50 (in the experiment with farnesylation of H-Ras; in experiment [1] (setting [2])) was above 10 µM throughout. The “selectivity (ratio of GGTase-I to FTase IC50s)” value at hFTase is given as above 17.
Take `C=C(C)CN(CCN(Cc1cncn1C)c1ccc(C#N)cc1)S(=O)(=O)c1cn(C)cn1` [1ac]: the IC50 (in the experiment with farnesylation of H-Ras; in experiment [1] (setting [2])) was above 10 µM in each case. Further, on hFTase, the “selectivity (ratio of GGTase-I to FTase IC50s)” value amounted to 5.3. At hFTase (selectivity for hFTase over GGTase-I), the GGTase-I/FTase selectivity result is reported as “about 5 fold”.
On to `Cn1cncc1CN(CCN(Cc1ccccc1)S(=O)(=O)c1ccccc1)c1ccc(C#N)cc1` [1d], for which the “selectivity (ratio of GGTase-I to FTase IC50s)” value on hFTase was found to be 7.6. Besides, the IC50 in experiment [1] (setting [2]) is above 10 µM.
For `C=CCN(CCN(Cc1cncn1C)c1ccc(C#N)cc1)S(=O)(=O)c1cn(C)cn1` [1ab], at hFTase, the “selectivity (ratio of GGTase-I to FTase IC50s)” value is above 14. Also, in experiment [1] (setting [2]), the half-inhibitory concentration (IC50) was above 10 µM.
`Cn1cncc1CN(CCN(Cc1ccccc1)S(=O)(=O)c1ccccn1)c1ccc(C#N)cc1` [compound 1f]: the concentration for half-maximal inhibition (IC50) in the experiment with farnesylation of H-Ras was 0.09 ± 0.06 µM; in experiment [1] (setting [2]), above 10 µM.
For `Cn1cnc(S(=O)(=O)N(CCN(Cc2cncn2C)c2ccc(C#N)cc2)Cc2ccncc2)c1` [1af], the IC50 (with farnesylation of H-Ras; in experiment [1] (setting [2])) was above 10 µM each time. In addition, at hFTase, the “selectivity (ratio of GGTase-I to FTase IC50s)” value is reported as above 139.
With `Cn1cnc(S(=O)(=O)N(CCN(Cc2cncn2C)c2ccc(C#N)cc2)Cc2ccsc2)c1` [compound 1ai, [N-(Thiophen-3-ylmethyl), N-{2-[(4-cyanophenyl)-(3-methyl-3H-imidazol-4-ylmethyl)-amino]-ethyl}]1-methyl-1H-imidazole-4-sulfonamide], the “selectivity (ratio of GGTase-I to FTase IC50s)” value on hFTase was 14. For the same compound, the IC50 in experiment [1] (setting [2]) was above 10 µM.
Take `Cn1cnc(S(=O)(=O)N(CCN(Cc2cncn2C)c2ccc(C#N)cc2)CC2CCN(c3ncccn3)CC2)c1` [compound 1az]: the IC50 (in the experiment on farnesylation of H-Ras; in experiment [1] (setting [2])) was above 10 µM in each case. Moreover, the “selectivity (ratio of GGTase-I to FTase IC50s)” value at hFTase is above 20.
With `Cn1cnc(S(=O)(=O)N(CCN(Cc2cncn2C)c2ccc(C#N)cc2)Cc2ccc(-n3cccc3)cc2)c1` [1av], at hFTase, the “selectivity (ratio of GGTase-I to FTase IC50s)” value came to 15. Moreover, the IC50 in experiment [1] (setting [2]) was above 10 µM.
In the case of `Cc1nc(C)c(CN(CCN(Cc2cncn2C)c2ccc(C#N)cc2)S(=O)(=O)c2cn(C)cn2)s1` [1am, [N-(2,4-Dimethyl-thiazol-5-ylmethyl), N-{2-[(4-cyanophenyl)-(3-methyl-3H-imidazol-4-ylmethyl)-amino]-ethyl}]1-methyl-1H-imidazole-4-sulfonamide], the IC50 (with farnesylation of H-Ras; in experiment [1] (setting [2])) was above 10 µM throughout. In addition, at hFTase, the “selectivity (ratio of GGTase-I to FTase IC50s)” value was above 1.6.
Take `Cc1ccc(CN(CCN(Cc2cncn2C)c2ccc(C#N)cc2)S(=O)(=O)c2cn(C)cn2)cc1` [1aq]: the IC50 in experiment [1] (NIH3T3, read-out: Rap1A processing IC50) was above 10 µM.
For `Cn1cnc(S(=O)(=O)N(CCN(Cc2cncn2C)c2ccc(C#N)cc2)CC(=O)NC(C)(C)C)c1` [1ae], the half-inhibitory concentration (IC50) (in the experiment with farnesylation of H-Ras; in experiment [1] (setting [2])) was above 10 µM in each case. Further, the “selectivity (ratio of GGTase-I to FTase IC50s)” value at hFTase is on record as 7.1.
As to `Cn1cncc1CN(CCN(CC1CCCCC1)S(=O)(=O)c1ccccn1)c1ccc(C#N)cn1` [21c, N-(2-((5-cyanopyridin-2-yl)((1-methyl-1H-imidazol-5-yl)methyl)amino)ethyl)-N-(cyclohexylmethyl)pyridine-2-sulfonamide], the results for the 50% inhibitory concentration (IC50) (in the experiment on farnesylation of H-Ras; in experiment [1] (setting [2])) were 0.288 ± 0.251 µM and 19 µM, respectively. The “selectivity (ratio of GGTase-I to FTase IC50s)” value at hFTase was 2.
`Cc1cccc(CN(CCN(Cc2cncn2C)c2ccc(C#N)cc2)S(=O)(=O)c2cn(C)cn2)c1` [1ap]: the “selectivity (ratio of GGTase-I to FTase IC50s)” value at hFTase was 12. The IC50 in experiment [1] (setting [2]) was above 10 µM.
Taken in the same sequence, the figures for `Cn1cnc(S(=O)(=O)N(CCN(Cc2cncn2C)c2ccc(C#N)cc2)Cc2cccs2)c1` [1ak, [N-(Thiophen-2-ylmethyl), N-{2-[(4-cyanophenyl)-(3-methyl-3H-imidazol-4-ylmethyl)-amino]-ethyl}]1-methyl-1H-imidazole-4-sulfonamide] were 2.6 and above 10 µM.
As to `Cn1cnc(S(=O)(=O)N(CCN(Cc2cncn2C)c2ccc(C#N)cc2)Cc2ccc(-c3ccccc3)cc2)c1` [1au], the “selectivity (ratio of GGTase-I to FTase IC50s)” value at hFTase is listed as 4.3. Besides, the IC50 in experiment [1] (setting [2]) is above 10 µM.
In the case of `Cn1cnc(S(=O)(=O)N(CCN(Cc2cncn2C)c2ccc(C#N)cc2Cl)CC2CCN(c3ncccn3)CC2)c1` [19a, [N-{2-[(2-Chloro-4-cyanophenyl)-(3-methyl-3H-imidazol-4-ylmethyl)-amino]-ethyl}, N-{N-(2-pyrimidinyl)-piperidin-4-ylmethyl}]1-methyl-1H-imidazole-4-sulfonamide], at hFTase, the “selectivity (ratio of GGTase-I to FTase IC50s)” value was above 18.
Still for that read-out and setting: with `Cn1cnc(S(=O)(=O)N(CCN(Cc2cncn2C)c2ccc(C(=O)OC(C)(C)C)cc2)Cc2ccccc2)c1` [compound 11, tert-Butyl 4-[{2-[benzyl-(1-methyl-1H-imidazole-4-sulfonyl)-amino]-ethyl}-(3-methyl-3H-imidazol-4-ylmethyl)-amino]-benzoate] the figure was 0.9.
As to `Cn1cnc(S(=O)(=O)N(CCN(Cc2cncn2C)c2ccc(C#N)cc2)Cc2ccccc2)c1` [compound 1a], the IC50 was 1.9 ± 1.2 µM with farnesylation of H-Ras and above 10 µM in experiment [1] (setting [2]).
For `Cn1cnc(S(=O)(=O)N(CCN(Cc2cncn2C)c2ncc(C#N)cn2)CC2CCN(c3ncccn3)CC2)c1` [19d, [N-{2-[(5-Cyanopyrimidin-2-yl)-(3-methyl-3H-imidazol-4-ylmethyl)-amino]-ethyl}, N-{N-(2-pyrimidinyl)-piperidin-4-ylmethyl}]1-methyl-1H-imidazole-4-sulfonamide], on hFTase, the “selectivity (ratio of GGTase-I to FTase IC50s)” value is given as above 16.
